Laboratory results taken from patent US10800792B2, “Inhibitors of Bruton's tyrosine kinase and method of their use” (JANSSEN PHARMACEUTICA NV, priority 2015, dated 2020).

Target: unphosphorylated-BTK kinase domain (UP-BTK), GST-tagged human BTK (389-659aa) (Homo sapiens (Human), UniProt Q06187)
Test: BTK kinase Lanthascreen binding assay
Conditions: pIC50 = negative log of the IC50 in molar, 60 minutes incubation, 50 nM Tracer 236; for IC50: read-out: BTK_I_binding pIC50 (converted)
How it was run: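 Lanthascreen competition binding; test compound vs fluorescent tracer on unphosphorylated BTK. Output: pIC50 (−log IC50, M).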

unphosphorylated-BTK kinase domain (UP-BTK), GST-tagged human BTK (389-659aa), sequence (Q06187 389-659): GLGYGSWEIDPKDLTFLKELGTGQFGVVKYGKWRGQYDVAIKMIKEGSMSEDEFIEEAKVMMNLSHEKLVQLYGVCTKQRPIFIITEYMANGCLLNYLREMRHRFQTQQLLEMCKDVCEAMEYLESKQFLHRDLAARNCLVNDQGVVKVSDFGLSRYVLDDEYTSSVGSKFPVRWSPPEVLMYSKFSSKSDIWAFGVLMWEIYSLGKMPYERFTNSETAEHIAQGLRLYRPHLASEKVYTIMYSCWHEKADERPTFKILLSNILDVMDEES

Compound	BTK_I_binding pIC50	IC50 [nM]
COC[C@H](C)C(=O)N1CCC[C@@H](NC(=O)c2sc3nccc4c3c2NC(=O)N4c2ccc(Oc3ccccc3)cc2C)C1 [Example 156, N—((R)-1-((S)-3-Methoxy-2-methylpropanoyl)piperidin-3-yl)-5-(2-methyl-4-phenoxyphenyl)-4-oxo-4,5-dihydro-3H-1-thia-3,5,8-triazaacenaphthylene-2-carboxamide]	7.1	–
CCOc1ccccc1Oc1ccc(N2C(=O)Nc3c(C(=O)N[C@@H]4CCCN(C)C4)sc4nccc2c34)c(C)c1 [Example 157, (R)-5-(4-(2-Ethoxyphenoxy)-2-methylphenyl)-N-(1-methylpiperidin-3-yl)-4-oxo-4,5-dihydro-3H-1-thia-3,5,8-triazaacenaphthylene-2-carboxamide]	6.6	–
COCC(C)C(=O)N1CCC[C@@H](NC(=O)c2sc3nccc4c3c2NC(=O)N4c2ccc(Oc3ccccc3)cc2C)C1 (stereo partly drawn) [Example 158, N-((3R)-1-(3-Methoxy-2-methylpropanoyl)piperidin-3-yl)-5-(2-methyl-4-phenoxyphenyl)-4-oxo-4,5-dihydro-3H-1-thia-3,5,8-triazaacenaphthylene-2-carboxamide]	7.1	–
Cc1cc(Oc2ccccc2)ccc1N1C(=O)Nc2c(C(=O)N[C@@H]3CCNC3)sc3nccc1c23 [Example 159, (R)-5-(2-methyl-4-phenoxyphenyl)-4-oxo-N-(pyrrolidin-3-yl)-4,5-dihydro-3H-1-thia-3,5,8-triazaacenaphthylene-2-carboxamide]	7.1	–
Cc1cc(Oc2ccccc2)ccc1N1C(=O)Nc2c(C(=O)N[C@@H]3C[C@@H](F)CN(C)C3)sc3nccc1c23 [Example 160, N-((3R,5R)-5-Fluoro-1-methylpiperidin-3-yl)-5-(2-methyl-4-phenoxyphenyl)-4-oxo-4,5-dihydro-3H-1-thia-3,5,8-triazaacenaphthylene-2-carboxamide]	6.6	–
C#CC(=O)N1CCC[C@@H](NC(=O)c2sc3nccc4c3c2NC(=O)N4c2ccc(Oc3ccccc3)cc2C)C1 [Example 161, (R)-5-(2-Methyl-4-phenoxyphenyl)-4-oxo-N-(1-propioloylpiperidin-3-yl)-4,5-dihydro-3H-1-thia-3,5,8-triazaacenaphthylene-2-carboxamide]	7.7	–
Cc1cc(Oc2ccccc2)ccc1N1C(=O)Nc2c(C(=O)NC3CCC(=O)N(C)C3)sc3nccc1c23 (stereo not shown) [Example 162, 5-(2-Methyl-4-phenoxyphenyl)-N-(1-methyl-6-oxopiperidin-3-yl)-4-oxo-4,5-dihydro-3H-1-thia-3,5,8-triazaacenaphthylene-2-carboxamide]	6.8	–
Cc1cc(Oc2ccccc2)ccc1N1C(=O)Nc2c(C(=O)N[C@@H]3CCCN(C(=O)CCN)C3)sc3nccc1c23 [Example 163, (R)—N-(1-(3-Aminopropanoyl)piperidin-3-yl)-5-(2-methyl-4-phenoxyphenyl)-4-oxo-4,5-dihydro-3H-1-thia-3,5,8-triazaacenaphthylene-2-carboxamide]	7.2	–
Cc1cc(Oc2ccccc2)ccc1N1C(=O)Nc2c(C(=O)N[C@@H]3C[C@H](F)CN(C)C3)sc3nccc1c23 [Example 164, N-((3R,5S)-5-Fluoro-1-methylpiperidin-3-yl)-5-(2-methyl-4-phenoxyphenyl)-4-oxo-4,5-dihydro-3H-1-thia-3,5,8-triazaacenaphthylene-2-carboxamide]	6.8	–
Cc1cc(Oc2ccccc2)ccc1N1C(=O)Nc2c(C(=O)NC3CCN(C)CC3C)sc3nccc1c23 (stereo not shown) [Example 165, N-(1,3-Dimethylpiperidin-4-yl)-5-(2-methyl-4-phenoxyphenyl)-4-oxo-4,5-dihydro-3H-1-thia-3,5,8-triazaacenaphthylene-2-carboxamide]	6.6	–
Cc1cc(Oc2ccccc2)ccc1N1C(=O)Nc2c(C(=O)NC3CCNC(=O)C3)sc3nccc1c23 (stereo not shown) [Example 166, 5-(2-Methyl-4-phenoxyphenyl)-4-oxo-N-(2-oxopiperidin-4-yl)-4,5-dihydro-3H-1-thia-3,5,8-triazaacenaphthylene-2-carboxamide]	6.9	–
Cc1cc(Oc2ccccc2)ccc1N1C(=O)Nc2c(C(=O)N[C@H]3CNC[C@@H](F)C3)sc3nccc1c23 [Example 167, N-((3R,5S)-5-fluoropiperidin-3-yl)-5-(2-methyl-4-phenoxyphenyl)-4-oxo-4,5-dihydro-3H-1-thia-3,5,8-triazaacenaphthylene-2-carboxamide]	7.0	–
Cc1cc(Oc2ccccc2)ccc1N1C(=O)Nc2c(C(=O)N[C@@H]3C[C@@H](O)CN(C)C3)sc3nccc1c23 [Example 168, N-((3R,5R)-5-Hydroxy-1-methylpiperidin-3-yl)-5-(2-methyl-4-phenoxyphenyl)-4-oxo-4,5-dihydro-3H-1-thia-3,5,8-triazaacenaphthylene-2-carboxamide]	6.8	–
CCc1ccccc1Oc1ccc(N2C(=O)Nc3c(C(=O)N[C@@H]4CCCN(C)C4)sc4nccc2c34)c(C)c1 [Example 170, (R)-5-(4-(2-Ethylphenoxy)-2-methylphenyl)-N-(1-methylpiperidin-3-yl)-4-oxo-4,5-dihydro-3H-1-thia-3,5,8-triazaacenaphthylene-2-carboxamide]	7.0	–
Cc1cc(Oc2ccccc2)ccc1N1C(=O)Nc2c(C(=O)NC3CC4CCN3CC4)sc3nccc1c23 (stereo not shown) [Example 171, 5-(2-Methyl-4-phenoxyphenyl)-4-oxo-N-(quinuclidin-2-yl)-4,5-dihydro-3H-1-thia-3,5,8-triazaacenaphthylene-2-carboxamide]	7.0	–
Cc1cc(Oc2ccccc2)ccc1N1C(=O)Nc2c(C(=O)NC3CCNCC3C)sc3nccc1c23 (stereo not shown) [Example 172, 5-(2-Methyl-4-phenoxyphenyl)-N-(3-methylpiperidin-4-yl)-4-oxo-4,5-dihydro-3H-1-thia-3,5,8-triazaacenaphthylene-2-carboxamide]	6.7	–
Cc1cc(Oc2ccccc2)ccc1N1C(=O)Nc2c(C(=O)N[C@H]3CNCC(F)(F)C3)sc3nccc1c23 [Example 174, (R)—N-(5,5-Difluoropiperidin-3-yl)-5-(2-methyl-4-phenoxyphenyl)-4-oxo-4,5-dihydro-3H-1-thia-3,5,8-triazaacenaphthylene-2-carboxamide]	6.6	–
N#C/C(=C\C1CC1)C(=O)N1CCC[C@@H](NC(=O)c2sc3nccc4c3c2NC(=O)N4c2c(F)cc(Oc3ccccc3)cc2F)C1 [Example 175, (R,E)-N-(1-(2-Cyano-3-cyclopropylacryloyl)piperidin-3-yl)-5-(2,6-difluoro-4-phenoxyphenyl)-4-oxo-4,5-dihydro-3H-1-thia-3,5,8-triazaacenaphthylene-2-carboxamide]	7.6	–
COc1ccc(N2C(=O)Nc3c(C(=O)N[C@@H]4CCCN(C(=O)/C(C#N)=[13CH]\C5CC5)C4)sc4nccc2c34)c(C)c1 [Example 176, ^13C—(R,Z)—N-(1-(2-Cyano-3-cyclopropylacryloyl)piperidin-3-yl)-5-(4-methoxy-2-methylphenyl)-4-oxo-4,5-dihydro-3H-1-thia-3,5,8-triazaacenaphthylene-2-carboxamide]	–	63.1
COc1ccc(N2C(=O)Nc3c(C(=O)N[C@@H]4CCCN(C(=O)/C(C#N)=[13CH]/C5CC5)C4)sc4nccc2c34)c(C)c1 [Example 177, ^13C—(R,E)-N-(1-(2-Cyano-3-cyclopropylacryloyl)piperidin-3-yl)-5-(4-methoxy-2-methylphenyl)-4-oxo-4,5-dihydro-3H-1-thia-3,5,8-triazaacenaphthylene-2-carboxamide]	–	39.8
Cc1cc(OC2CCCCC2)ccc1N1C(=O)Nc2c(C(=O)N[C@@H]3CCCN(C(=O)/C(C#N)=C/C4CC4)C3)sc3nccc1c23 [Example 178, (R,E)-N-(1-(2-Cyano-3-cyclopropylacryloyl)piperidin-3-yl)-5-(4-(cyclohexyloxy)-2-methylphenyl)-4-oxo-4,5-dihydro-3H-1-thia-3,5,8-triazaacenaphthylene-2-carboxamide]	–	100
Cc1cc(Oc2ccccc2)ccc1N1C(=O)Nc2c(C(=O)N[C@H]3CNC[C@H](O)C3)sc3nccc1c23 [Example 179, N-((3R,5R)-5-Hydroxypiperidin-3-yl)-5-(2-methyl-4-phenoxyphenyl)-4-oxo-4,5-dihydro-3H-1-thia-3,5,8-triazaacenaphthylene-2-carboxamide]	7.0	–
N#CCC(=O)N1CCC[C@@H](NC(=O)c2sc3nccc4c3c2NC(=O)N4c2ccc(Oc3ccccc3)cc2)C1 [Example 181, (R)—N-(1-(2-Cyanoacetyl)piperidin-3-yl)-4-oxo-5-(4-phenoxyphenyl)-4,5-dihydro-3H-1-thia-3,5,8-triazaacenaphthylene-2-carboxamide]	7.1	–
CN1CCC[C@@H](NC(=O)c2sc3nccc4c3c2NC(=O)N4c2ccc(Oc3ccccc3)cc2)C1 [Example 182, (R)—N-(1-Methylpiperidin-3-yl)-4-oxo-5-(4-phenoxyphenyl)-4,5-dihydro-3H-1-thia-3,5,8-triazaacenaphthylene-2-carboxamide]	6.7	–
Cc1cc(OC2CC2)ccc1N1C(=O)Nc2c(C(=O)N[C@@H]3CCCN(C(=O)/C(C#N)=C/C4CC4)C3)sc3nccc1c23 [Example 185, (R,E)-N-(1-(2-Cyano-3-cyclopropylacryloyl)piperidin-3-yl)-5-(4-cyclopropoxy-2-methylphenyl)-4-oxo-4,5-dihydro-3H-1-thia-3,5,8-triazaacenaphthylene-2-carboxamide]	7.5	–
